Experimental data: patent US10772890B2, “Use of myeloperoxidase (MPO) inhibitors or pharmaceutically acceptable salts thereof to treat multiple system atrophy (MSA) 938” (ASTRAZENECA AB, priority 2007, dated 2020)

Assays:
Format in all cases: in vivo
[1] = test system: MSA mice (tg+3NP); assay: Open field activity (Flex Field Activity System) in MSA mouse model; details: high dose 180 μmol/kg p.o. twice daily, FIG. 2
Protocol: (§1) A total of 30 (PLP)-α-synuclein transgenic mice were used. Animals were housed at 12/12 hours dark/light cycle with free access to food and water in the animal facility of the Innsbruck Medical University. All experiments were performed in accordance with the Austrian law and after permission for animal experiments of the Federal Ministry for Education, Science, and Culture of Austria.
(§2) Low dose group (n=10) MSA mice (tg+3NP) treated with 1-(2-Isopropoxyethyl)-2-thioxo-1,2,3,5-tetrahydro-pyrrolo[3,2-d]pyrimidin-4-one (Compound I; prepared by AstraZeneca), 2×6 μmol/kg p.o.
(§3) High dose group (n=10) MSA mice (tg+3NP) treated with Compound I (prepared by AstraZeneca), 2×180 μmol/kg, p.o.
1-(2-Isopropoxyethyl)-2-thioxo-1,2,3,5-tetrahydro-pyrrolo[3,2-d]pyrimidin-4-one (Compound I treatment) was started one week prior to the first 3NP intoxication and stopped three weeks after the first 3NP intoxication (see 3NP intoxication protocol below). Animals underwent behavioral tests during week 3-4 after the beginning of the experiment. On day 28 animals were perfused under deep thiopental anesthesia and the brains were collected for histopathological analysis of neuronal loss and gliosis. […]

[2] = test system: MSA mice (tg+3NP); assay: Stride length test in MSA mouse model; details: high dose 180 μmol/kg p.o. twice daily, FIG. 3
Protocol: as §1, §2, §3
(§4) 1-(2-Isopropoxyethyl)-2-thioxo-1,2,3,5-tetrahydro-pyrrolo[3,2-d]pyrimidin-4-one (Compound I treatment) was started one week prior to the first 3NP intoxication and stopped three weeks after the first 3NP intoxication (see 3NP intoxication protocol below). […]
The stride length of the forelimbs and hindlimbs of the mice was measured after a habituation to the test for 3 days before its performance according to Fernagut et al. (Fernagut P O. et al. Neuroscience. 2002; 114:1005-17) with slight modification. […] After three runs, the stride length of the hindlimbs on each side was measured, excluding the beginning (7 cm) and the end (7 cm) of the run. The mean stride length for each limb was determined.

[3] = test system: MSA mice (tg+3NP); assay: Motor clinical scale evaluation in MSA mouse model; details: p.o. twice daily, compared to vehicle treated mice, FIG. 1
From the text: A novel mouse model of MSA has been developed by inducing oxidative stress in transgenic mice with oligodendroglial α-synuclein expression (described herein). This model reproduces the cardinal neuropathological features of the disease including striatonigral degeneration (SND), olivopontocerebellar atrophy (OPCA), astrogliosis and microgliosis combined with oligodendroglial insoluble α-synuclein inclusions. Mitochondrial inhibition by 3NP in the presence of glial cytoplasmic inclusions in transgenic mice induces a selective neuronal cell death pattern typical for MSA in these animals (Stefanova N. et al. Am. J. Pathol. 2005; 166:869-76).
Thus, in the present invention, MPO inhibitors have been use to suppress MPO activity in an MSA mouse model consisting of an oligodendroglial α-SYN overexpression in transgenic mice exposed to mitochondrial inhibition by 3-nitropropionic acid (3NP). The effects were followed by application of established immunohistological and behavioral methods to evaluate the participation of MPO in the pathogenesis of MSA and the possible neuroprotective effects of in an MSA model.
A total of 30 (PLP)-α-synuclein transgenic mice were used. Animals were housed at 12/12 hours dark/light cycle with free access to food and water in the animal facility of the Innsbruck Medical University. […]

[4] = test system: MSA mice (tg+3NP); assay: Neuropathology: immunohistochemistry and stereological neuron counts in MSA mouse model
Protocol: as §1, §2, §3
1-(2-Isopropoxyethyl)-2-thioxo-1,2,3,5-tetrahydro-pyrrolo[3,2-d]pyrimidin-4-one (Compound I treatment) was started one week prior to the first 3NP intoxication and stopped three weeks after the first 3NP intoxication (see 3NP intoxication protocol below). Animals underwent behavioral tests during week 3-4 after the beginning of the experiment. On day 28 animals were perfused under deep thiopental anesthesia and the brains were collected for histopathological analysis of neuronal loss and gliosis.
Mice were intoxicated chronically with 3NP with slowly increasing doses of toxin according to a previously used scheme (i.e. 4×10 mg/kg, 4×20 mg/kg, 4×40 mg/kg, 4×50 mg/kg intraperitoneal injections every 12th hour for a period of 8 days) to model MSA (Stefanova N. et al. Am. J. Pathol. 2005; 166:869-76)
The drug and vehicle (0.1 mol/L meglumine with 20% w/v hydroxypropyl-β-cyclodextrin, pH 10.8) were stored at 4° C. […]
(§5) Stereology was applied using a computer-assisted image analysis system (Nikon E-800 microscope, CCD video camera, Optronics MicroFire, Goleta, USA; Stereo Investigator Software, MicroBrightField Europe e.K., Magdeburg, Germany). […] Purkinje cells were counted in a region outlined to include only the Purkinje cell layer as previously reported (German D C. et al. Neuroscience. 2001; 105:999-1005). All data were expressed as mean value±SEM. […]

[5] = test system: MSA mice (tg+3NP); assay: Microglial activation (optical density) in substantia nigra and striatum of MSA mice; details: high dose 180 μmol/kg p.o. twice daily, FIG. 6
Protocol: as §1, §2, §3, §4, §5

## CC(C)OCCn1c(=S)[nH]c(=O)c2[nH]ccc21 [Compound I, 1-(2-Isopropoxyethyl)-2-thioxo-1,2,3,5-tetrahydro-pyrrolo[3,2-d]pyrimidin-4-one]
[1]
  flex field performance (rearing and open field activity): significant improvement
[2]
  stride length test performance (left and right hindlimbs): significant improvement
[3]
  mean daily motor score: significant improvement
[4]; high dose 180 μmol/kg p.o. twice daily, FIG. 4
  striatonigral degeneration (TH immunopositive cells in substantia nigra, dopaminergic terminals in striatum, striatal DARPP-32 immunoreactive neurons): neuroprotective
[4]; high dose 180 μmol/kg p.o. twice daily, FIG. 5
  olivopontocerebellar atrophy (inferior olivary complex, pontine nuclei, Purkinje cells in the cerebellum): neuroprotective
[4]; summary of findings, dose not stated
  neuroprotection (neurons preserved in substantia nigra pars compacta, striatum, cerebellar cortex, pontine nuclei, inferior olivary complex): significant neuroprotection
[5]
  microglial activation in substantia nigra and striatum: suppression of microglial activation
